Data taken from patent US6291247A, “Methods of screening for factors that disrupt neurotrophin conformation and reduce neurotrophin biological activity” (priority 1996, dated 2001).
Bridges are numbered along the chain shown (N, C = ends).

How the values were obtained:
TrkA = target: T1, TrkA; experiment: Affinity cross-linking of 125I-NGF to TrkA on PC12 cells; type: binding, rat; settings: 200 μM; result in words
T1 construct: Receptor cross-linking studies were performed on PC12 rat pheochromocytoma cells; endogenous in cells; host or cells: PC12 rat pheochromocytoma cells (ATCC CRL 1721)
T1 sequence (P01139 122-239): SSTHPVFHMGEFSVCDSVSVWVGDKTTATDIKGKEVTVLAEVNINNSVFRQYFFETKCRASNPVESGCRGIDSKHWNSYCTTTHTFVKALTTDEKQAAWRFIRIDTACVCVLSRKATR
Procedure: The ability of the peptides under study to interfere with binding of NGF to NGF receptors was evaluated by analysis of inhibition of the chemical cross-linking of ^251 I-NGF to the common neurotrophin receptor p75 (Chao, J. Neurobiol. 25:1373-1385 (1994)) and the specific NGF receptor TrkA (Barbacid, J. Neurobiol. 25: 1386-1403 (1994)). Immunoprecipitation and polyacrylamide gel electrphoresis of cross linked receptors allowed identification of both receptors, as shown in FIG. 7A. […] At concentrations of 200 μM, neither R11(l) nor R11(m) were able to inhibit greater than 50% of the observed ^125 I-labelling.
The ability of the peptides derived from the 68-58/108-110 region of NGF to antagonize NGF interaction with the p75 and TrkA receptors was determined The peptides tested were bicyclic (BC) 68-58/108-110, cyclic (C) 68-58/108-110, and linear (L) 68-58/108-110, each of which are illustrated in FIGS. 2 and 5D
Receptor cross-linking studies were performed on PC12 rat pheochromocytoma cells (ATCC CRL 1721; Greene et al., Proc. Natl. Acad. Sci. USA 73: 2424-2432 (1976)) which were maintained in RPMI1640 (Gibco) supplemented with 10% fetal calf serum (Gibco). […]

[1] = tested on: kindling-induced seizures; experiment: Kindling (seizure development) in rats; type: in vivo, Male Long-Evans hooded rats; settings: intraventricular infusion; peptide 45 μM, anti-NGF 100 μg/day
Procedure: The effect of the present neurotrophin-derived peptides on kindling was determined as follows.
Male Long-Evans hooded rats (300-400 g) were used. The animals were housed individually, maintained on an ad lib feeding schedule and kept on a 12 h on/12 h off light cycle. The rats were anaestetised with 0.1 mL per 100 g body weight of 100 mg/mL ketamine hydrochloride (Roger/STB Inc., London, Canada) and 0.05 mL per 100 g body weight of 20 mg/mL xylocaine 2% hydrochloride (Astra, Mississauga, Canada), and then placed in a stereotaxic holder. […] Following implantation of the electrode, a cannula (Alzet brain infusion kit, Alza Corp.) was implanted in the lateral ventricle, 5 mm below the skull surface, at 0.6 mm caudal to bregma and 1.3 mm lateral to the midline. It was firmly attached to the skull with dental cement and anchored with tee stainless steel screws. […] Histological examination of lateral ventricle sections was done to confirm that the cannula was correctly placed. […] There were five groups of test animals, 5 animals per peptide test group, 10 animals in the negative control group and 12 animals in the positive control group. […]
Following a three-day recovery, the kindling stimulations were started. […] Progression of kindling was monitored behaviorally and electrophysiologically by recording the behavioral seizure stages and the duration and magnitude of afterdischarges.

PC12 cells = experiment: NGF-dependent survival of PC12 cells; type: cell-based, rat
Procedure: Effects of divalent ions on NGF mediated survival and toxicity was evaluated using a colorimetric assay for the lysosomal enzyme acid phosphatase to determine cell number (Connolly, D. T., Knight, M. B., Harakas, N. K, Wittwer, A. J. & Feder, J. Determination of the number of endothelial cells in culture using an acid phosphatase assay. Anal. Biochem. 152, 136-140 (1986); Ueda, Y., Walsh, E., Nakanishi H. & Yoshida, K. A. colorometric assay method for the evaluation of neurotrophic activity in vitro. Neurosci. Lett. 165, 203-207 (1994)). […] To evaluate toxicity, the cells were seeded and maintained without NGF in RPMI with 10% heat inactivated donor horse serum and 5% fetal calf serum in the presence of additives. Loss in viable cell number was determined and expressed as a percent of control. NGF rescues PC12 cells from cell death in serum-free medium(Greene, L. A. Nerve growth factor prevents the death and stimulates neuronal differentiation of clonal PC12 pheochromocytoma cells in serum-free medium. J. Cell Biol. 78, 747-755 (1978)). NGF-dependent survival was assessed by harvesting PC12 cells in balanced salt solution followed with washing by 4 cycles of suspension and centrifugation in serum-free RPMI prior to seeding in 96 well plates. After incubation with additives, medium was removed from the wells and cells washed once with 200 μl PBS. Buffer containing 0.1M sodium acetate pH 5.5, 0.1% Triton X-100 and 10 mM p-nitrophenyl phosphate (Sigma 104 phosphatase substrate) was added to each well (100 μl). Plates were incubated at 37° C. for 3 hours. The reaction was stopped by the addition of 10 μl/well of 1N sodium hydroxide and the color development measured at 405 nm using a microplate reader. The relationship between cell number and enzyme activity was linear over the range 1000 to 15,000 cells.
To explore the ability of other transition metals to influence the biological activities of NGF, a series of cations known to mimic in certain respects the binding of zinc to proteins were tested. […] For this reason these ions were not tested in NGF- dependant growth phenomena. […] As these studies appeared to indicate potentially complex results upon metal ions binding to NGF, a receptor crosslinking system where specific receptor types could be identified was utilized.

NH2 -Cys-Gly-Ser-Glu-Val-Pro-Asn-Ser-Ala-Arg-Cys-Cys-Val-Cys-OH (H-CGSEVPNSARCCVC-OH; disulfide 1-14, 11-12) [R11, bicyclic peptide of NGF residues 68-58/108-110, two disulfide bonds]
Covalent attachment of 125I-NGF to receptor (TrkA) (TrkA): effectively prevented the covalent attachment
Delay of the onset of kindling (number of stimulations to stage-5 seizures) [1]: approximately equal to that of the anti-NGF IgG

[Zn+2] [Zn^2+]
NGF-mediated survival of PC12 cells (PC12 cells; 100 μM, serum-free, CaEDTA together with Zn2+): reduced signifcantly
Antagonism of NGF-dependent survival (PC12 cells; high (1 nM) or low (50 pM) NGF): ability to antagonize the NGF-dependant survival
Survival @ 50 pM NGF (PC12 cells; rat, pc12 cells, 100 µM): 67 ± 19 % control
Survival @ 1 nM NGF (PC12 cells; rat, pc12 cells, 100 µM): 84 ± 39 % control
